Molecular target: T1, human NaV1.8 (Homo sapiens, UniProt Q9Y5Y9)
T1 construct: The following NaV1.8 recombinant cell line was used for recordings: HEK-NaV1.8 (NM 006514.1); expressed in transfected cells; host or cells: HEK (recombinant cell line HEK-NaV1.8)
Assay: Electrophysiology: automated whole-cell voltage-clamp (patch clamp, Qube384) recordings of sodium currents in HEK-NaV1.8 cells
Type: cell-based
Conditions: potency data either taken from inactivated or resting state, read-out: Potency category (human NaV1.8 IC50)
Outline: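 Automated whole-cell patch clamp at room temperature on HEK cells expressing human NaV1.8, with 0.3% DMSO vehicle controls. State-dependent protocol from −120 mV tested resting (P1) and half-inactivated (P2, 4 s at V1/2) channels, plus 40-pulse trains at 10 and 20 Hz. Values after ~12 min compound exposure were normalised to baseline and corrected for vehicle run-down; IC50 from a 4-parameter logistic fit, taken from inactivated or resting state.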

T1 sequence (Q9Y5Y9 whole entry): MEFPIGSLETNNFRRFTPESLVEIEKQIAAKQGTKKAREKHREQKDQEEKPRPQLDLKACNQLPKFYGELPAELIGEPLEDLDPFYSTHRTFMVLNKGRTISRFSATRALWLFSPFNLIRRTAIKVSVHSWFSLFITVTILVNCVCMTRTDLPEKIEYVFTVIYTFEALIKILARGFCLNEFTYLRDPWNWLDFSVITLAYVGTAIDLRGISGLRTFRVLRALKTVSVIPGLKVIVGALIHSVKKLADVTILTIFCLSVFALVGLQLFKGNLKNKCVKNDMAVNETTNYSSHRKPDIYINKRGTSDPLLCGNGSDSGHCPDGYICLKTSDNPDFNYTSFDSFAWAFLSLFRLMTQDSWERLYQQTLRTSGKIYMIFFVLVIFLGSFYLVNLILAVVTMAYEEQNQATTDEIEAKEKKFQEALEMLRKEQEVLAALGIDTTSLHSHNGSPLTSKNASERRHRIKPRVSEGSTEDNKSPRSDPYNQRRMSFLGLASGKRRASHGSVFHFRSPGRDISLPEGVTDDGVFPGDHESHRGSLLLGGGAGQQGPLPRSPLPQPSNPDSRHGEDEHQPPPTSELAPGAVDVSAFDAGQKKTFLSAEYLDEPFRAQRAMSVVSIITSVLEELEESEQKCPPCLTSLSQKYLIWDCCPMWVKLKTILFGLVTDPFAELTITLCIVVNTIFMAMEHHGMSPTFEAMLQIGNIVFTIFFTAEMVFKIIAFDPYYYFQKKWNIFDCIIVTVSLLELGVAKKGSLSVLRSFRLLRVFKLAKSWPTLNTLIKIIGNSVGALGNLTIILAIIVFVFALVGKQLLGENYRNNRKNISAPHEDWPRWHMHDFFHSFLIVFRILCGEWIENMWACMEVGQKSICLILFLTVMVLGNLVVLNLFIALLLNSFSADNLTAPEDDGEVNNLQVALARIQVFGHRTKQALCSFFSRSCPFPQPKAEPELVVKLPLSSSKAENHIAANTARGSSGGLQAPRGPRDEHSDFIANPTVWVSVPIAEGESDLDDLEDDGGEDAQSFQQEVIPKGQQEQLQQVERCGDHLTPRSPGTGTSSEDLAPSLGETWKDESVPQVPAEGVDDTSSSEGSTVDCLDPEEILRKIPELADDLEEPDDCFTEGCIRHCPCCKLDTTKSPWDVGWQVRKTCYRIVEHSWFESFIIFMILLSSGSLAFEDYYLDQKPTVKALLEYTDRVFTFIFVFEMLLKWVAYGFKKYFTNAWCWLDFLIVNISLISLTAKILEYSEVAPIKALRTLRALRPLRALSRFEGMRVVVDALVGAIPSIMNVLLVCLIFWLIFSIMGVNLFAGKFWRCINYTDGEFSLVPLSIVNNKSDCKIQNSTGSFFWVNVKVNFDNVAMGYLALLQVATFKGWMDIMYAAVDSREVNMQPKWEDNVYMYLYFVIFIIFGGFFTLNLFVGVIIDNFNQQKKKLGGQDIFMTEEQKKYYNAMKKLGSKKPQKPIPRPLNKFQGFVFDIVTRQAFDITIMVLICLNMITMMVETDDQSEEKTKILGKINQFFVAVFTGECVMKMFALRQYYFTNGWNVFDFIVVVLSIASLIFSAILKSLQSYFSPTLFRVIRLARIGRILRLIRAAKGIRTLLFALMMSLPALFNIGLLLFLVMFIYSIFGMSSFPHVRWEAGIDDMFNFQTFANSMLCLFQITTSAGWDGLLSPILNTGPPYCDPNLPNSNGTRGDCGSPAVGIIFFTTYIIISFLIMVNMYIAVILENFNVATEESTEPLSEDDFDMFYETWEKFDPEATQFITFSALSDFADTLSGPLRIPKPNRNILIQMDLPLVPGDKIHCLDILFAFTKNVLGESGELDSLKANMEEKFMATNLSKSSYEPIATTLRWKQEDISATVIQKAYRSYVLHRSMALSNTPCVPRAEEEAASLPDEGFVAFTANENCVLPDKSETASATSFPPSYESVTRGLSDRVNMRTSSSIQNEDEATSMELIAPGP
T1 sequence (Q9NY72 23-215 partner): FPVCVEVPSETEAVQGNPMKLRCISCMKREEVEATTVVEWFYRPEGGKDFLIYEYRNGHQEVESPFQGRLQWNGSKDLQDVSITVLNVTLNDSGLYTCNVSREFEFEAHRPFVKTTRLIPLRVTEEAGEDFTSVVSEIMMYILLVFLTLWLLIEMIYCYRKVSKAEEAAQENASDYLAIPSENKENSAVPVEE

IC50 [nM] | SMILES
1000 to 10000 | Cc1nn(CC2CCC(F)(F)CC2)c(C(=O)Nc2cccc(C(N)=O)n2)c1C(F)(F)F [SC-253, 6-(1-((4,4-difluorocyclohexyl)methyl)-3-methyl-4-(trifluoromethyl)-1H-pyrazole-5-carboxamido)picolinamide]
≤ 100 | NC(=O)c1cc(NC(=O)c2c(C(F)(F)F)c(C3CC3)nn2C[C@@H]2CC[C@H](C(F)(F)F)O2)ccn1 (single isomer, unassigned) [SC-284b]
≤ 100 | Cc1c(C(C)(F)F)nn(CC2CCC(F)(F)C2)c1C(=O)Nc1cccc(S(N)(=O)=O)c1 (single isomer, unassigned) [SC-296a]
≤ 100 | NS(=O)(=O)c1cc(NC(=O)c2c(C(F)(F)F)c(C3CC3)nn2CC2CC(F)(F)C2)ccn1 [SC-282, 3-cyclopropyl-1-((3,3-difluorocyclobutyl)methyl)-N-(2-sulfamoylpyridin-4-yl)-4-(trifluoromethyl)-1H-pyrazole-5-carboxamide]
1000 to 10000 | Cc1c(C(C)(F)F)nn(CC2(C)CCO2)c1C(=O)Nc1ccnc(S(N)(=O)=O)c1 (stereo not drawn) [SC-317, 3-(1,1-difluoroethyl)-4-methyl-1-((2-methyloxetan-2-yl)methyl)-N-(2-sulfamoylpyridin-4-yl)-lH-pyrazole-5-carboxamide]
≤ 100 | C[S+]([O-])c1cc(NC(=O)c2c(C(F)(F)F)c(C(C)(F)F)nn2CC2CC(F)(F)C2)ccn1 (stereo not drawn) [SC-303, 1-((3,3-difluorocyclobutyl)methyl)-3-(1,1-difluoroethyl)-N-(2-(methylsulfinyl)pyridin-4-yl)-4-(trifluoromethyl)-1H-pyrazole-5-carboxamide]
1000 to 10000 | Cc1c(C(C)(F)F)nn(CC2(C)CCCO2)c1C(=O)Nc1ccnc(S(N)(=O)=O)c1 (single isomer, unassigned) [SC-319b]
≤ 100 | NC(=O)c1cc(NC(=O)c2c(C(F)(F)F)c(C3CC3)nn2CC2CCCCO2)ccn1 (single isomer, unassigned) [SC-258a]
≤ 100 | CS(=O)(=O)c1cc(NC(=O)c2c(C(F)(F)F)c(C3CC3)nn2CC2CCC(F)(F)C2)ccn1 (single isomer, unassigned) [SC-277b]

Second part, the molecule before the results:

SMILES | IC50 [nM]
Cc1c(C(C)(F)F)nn(CC2CCC(F)(F)C2)c1C(=O)Nc1ccnc(S(N)(=O)=O)c1 (stereo not drawn) [SC-211, 1-((3,3-difluorocyclopentyl)methyl)-3-(1,1-difluoroethyl)-4-methyl-N-(2-sulfamoylpyridin-4-yl)-1H-pyrazole-5-carboxamide] | ≤ 100
CS(=O)(=O)c1cccc(NC(=O)c2c(C(F)(F)F)cnn2CC2(F)CCCCC2)c1 [SC-233, 1-((1-fluorocyclohexyl)methyl)-N-(3-(methylsulfonyl)phenyl)-4-(trifluoromethyl)-1H-pyrazole-5-carboxamide] | 100 to 1000
CS(=O)(=O)c1cccc(NC(=O)c2cc(C(F)(F)F)nn2CC2CCCCC2)c1 [SC-01, 1-(cyclohexylmethyl)-N-(3-(methylsulfonyl)phenyl)-3-(trifluoromethyl)-1H-pyrazole-5-carboxamide] | 100 to 1000
Cc1ncc(NC(=O)c2c(C(F)(F)F)c(C)nn2CC2CCC(F)(F)CC2)cc1C(N)=O [SC-251, 5-(1-((4,4-difluorocyclohexyl)methyl)-3-methyl-4-(trifluoromethyl)-1H-pyrazole-5-carboxamido)-2-methylnicotinamide] | 1000 to 10000
Cc1c(C(C)(F)F)nn(CC2CC(F)(F)C2)c1C(=O)Nc1ccnc(S(N)(=O)=O)c1 [SC-215, 1-((3,3-difluorocyclobutyl)methyl)-3-(1,1-difluoroethyl)-4-methyl-N-(2-sulfamoylpyridin-4-yl)-lH-pyrazole-5-carboxamide] | ≤ 100
CS(=O)(=O)c1cc(NC(=O)c2c(C(F)(F)F)cnn2CC2CCC(F)(F)CC2)ccc1F [SC-13, 2-[(4,4-difluorocyclohexyl)methyl]-N-(4-fluoro-3-methylsulfonylphenyl)-4-(trifluoromethyl)pyrazole-3-carboxamide] | 100 to 1000
Cc1nn(CC2CCOCC2)c(C(=O)Nc2cccc(S(N)(=O)=O)c2)c1C [SC-45, 3,4-dimethyl-N-(3-sulfamoylphenyl)-1-((tetrahydro-2H-pyran-4-yl)methyl)-1H-pyrazole-5-carboxamide] | 1000 to 10000
NC(=O)c1cc(NC(=O)c2c(C(F)(F)F)c(C3CC3)nn2CC2CC(OC(F)(F)F)C2)ccn1 (single isomer, unassigned) [SC-219a] | ≤ 100
NC(=O)c1cc(NC(=O)c2c(C(F)(F)F)c(C(F)F)nn2CC2CC(F)(F)C2)ccc1F [SC-141, N-(3-carbamoyl-4-fluorophenyl)-1-((3,3-difluorocyclobutyl)methyl)-3-(difluoromethyl)-4-(trifluoromethyl)-1H-pyrazole-5-carboxamide] | ≤ 100
NC(=O)c1cc(NC(=O)c2c(Cl)c(C(F)(F)F)nn2CC2CCC(F)(F)C2)ccn1 (single isomer, unassigned) [SC-160a] | ≤ 100
CS(=O)(=O)c1cccc(NC(=O)c2c(C(F)(F)F)cnn2CC2CCC(F)(F)CC2)c1 [SC-05, 2-[(4,4-difluorocyclohexyl)methyl]-N-(3-methylsulfonylphenyl)-4-(trifluoromethyl)pyrazole-3-carboxamide] | 100 to 1000
Cc1c(C(C)(F)F)nn(CC2(C)CCC(F)(F)C2)c1C(=O)Nc1ccnc(C(N)=O)c1 (single isomer, unassigned) [SC-214a] | ≤ 100
Cc1c(Cl)nn(CC2CCC(F)(F)CC2)c1C(=O)Nc1ccnc(C(N)=O)c1 [SC-239, 4-(3-chloro-1-((4,4-difluorocyclohexyl)methyl)-4-methyl-1H-pyrazole-5-carboxamido)picolinamide] | 100 to 1000
NC(=O)c1cc(NC(=O)c2c(C(F)(F)F)c(OCC3CC3)nn2CC2CCC(F)(F)C2)ccn1 (racemic) [SC-157, 4-(3-(cyclopropylmethoxy)-1-((3,3-difluorocyclopentyl)methyl)-4-(trifluoromethyl)-1H-pyrazole-5-ca±oxamido)picolinamide] | ≤ 100
NC(=O)c1cc(NC(=O)c2c(C(F)(F)F)c(C3CC3)nn2C[C@@H]2CO[C@H](C(F)(F)F)C2)ccn1 (single isomer, unassigned) [SC-148b] | ≤ 100
Cc1c(C(F)(F)F)nn(CC2CCC(F)(F)CC2)c1C(=O)Nc1cccc(S(N)(=O)=O)n1 [SC-243, 1-((4,4-difluorocyclohexyl)methyl)-4-methyl-N-(6-sulfamoylpyridin-2-yl)-3-(trifluoromethyl)-1H-pyrazole-5-carboxamide] | 100 to 1000
Cc1c([C@H](C)C(F)(F)F)nn(CC2CC(F)(F)C2)c1C(=O)Nc1ccnc(C(N)=O)c1 [SC-188b] | 100 to 1000
Cc1c(C(F)(F)F)nn(CC2CCC(F)(F)C2)c1C(=O)Nc1ccnc(C(N)=O)c1 (single isomer, unassigned) [SC-118a] | ≤ 100

Source: US11999699B2, “Substituted pyrazole amides” (GRUENENTHAL GMBH, priority 2021, dated 2024)
